Experimental data: US20170175161A1, “RAPID DETERMINATION OF BACTERIAL SUSCEPTIBILITY TO AN […] THE POINT OF CARE” (Point of Care Diagnostics, LLC, priority 2014, published 2017)

Test system: bacterial infection within the sample (sample 101, e.g. urine)
Experiment: assay 200: antibiotic susceptibility of a bacterial infection by ATP bioluminescence
Assay type: cell-based
Description: To perform assay 200 to determine antibiotic susceptibility of a bacterial infection within the sample, a second test sample 204 and third test sample 205 may be obtained from sample 101 by applying 50 to 400 μL of first reagent 202 and 50 to 300 μL of culture medium 203 to 1 to 20 μL of sample 101 to create second test sample 204 and to 1 to 20 μL of sample 101 to create third test sample 205. First reagent 202 may include 10 to 100 mM of Tris Acetate as a buffer, 0.0001 to 0.1% of Benzethonium Chloride, and 0.5 to 4 Units/ml of Apyrase. First reagent 202 may cause non-bacterial ATP to be released and removed, in a manner similar to that as described herein. Culture medium 203 may include 50 to 300 μL of Tryptic Soy Broth. Culture medium 203 may be applied to second test sample 204 and third test sample 205 and may promote the growth and robustness of the bacterial population, in a manner similar to that described herein.
First antibiotic 206 may be applied to third test sample 205. In this example, first antibiotic 206 may include 10 to 100 μg of Amoxicillin. Second test sample 204 and the third test sample 205 may then be incubated for ˜40 minutes at 37 degrees Celsius.
After incubation, second reagent 207 (e.g., 100 to 500 μL) may be applied to second test sample 204 and third test sample 205. Second reagent 207 may include 10 to 100 mM of Tris Acetate as a buffer and 2 to 30 mg/L of Luciferase, 2 to 30 mg/L of Luciferin, and 0.1 to 0.5% of Chlorhexidine di-gluconate. […]
A Berthold Junior Luminometer may be used to measure a first bioluminescent signal (and associated strength) from third test sample 205 and a second bioluminescent signal (and associated strength) from second test sample 204 (e.g., based on released ATP, etc.). In a manner similar to that described above, the strength associated with the first bioluminescent signal and/or the strength associated with the second bioluminescent signal may be proportional to the respective quantity and/or concentration of ATP and/or quantity of bacterial cells within third test sample 205 and/or second test sample 204, respectively. […] In this example, the strength of the first bioluminescent signal was measured to be 66,823 RLU's and the strength of the second bioluminescent signal was measured to be 62,535 RLU's. Thus, the quantity of bacteria cells in third test sample 205 was ˜62,000 cfu/ml and the quantity of bacteria cells in the second test sample 204 was ˜67,000 cfu/ml.
In the event that the bacteria, within third test sample 205, are susceptible to first antibiotic 206, the quantity of bacterial cells in third test sample 205 may be less than the quantity of bacterial cells in second test sample 204. […]

In the case of `CC1(C)S[C@@H]2[C@H](NC(=O)[C@H](N)c3ccc(O)cc3)C(=O)N2[C@H]1C(=O)O` [Amoxicillin], the “susceptibility of the bacteria to the antibiotic” value (10-100 μg, ΔL compared to second threshold >30% difference) is reported as “may not be susceptible”, the “strength of the first bioluminescent signal (third test sample 205, with antibiotic)” value (10 to 100 μg antibiotic, incubated ~40 minutes at 37 degrees Celsius, Berthold Junior Luminometer, baseline second test sample 62,535 RLU's) is reported as 66,823 RLU's and the “quantity of bacteria cells in third test sample 205” value (10 to 100 μg antibiotic, ~40 minutes at 37 degrees Celsius, baseline second test sample ~67,000 cfu/ml) is reported as ~62,000 cfu/ml. The “ΔL, difference between first and second bioluminescent signal strength” value (antibiotic-treated vs baseline sample, second threshold >30% difference) was 7.5%.
